Tests used:
[1] = cited from earlier work
[2] = cited from earlier work; remark: listed apart in the source
[3] = Drug interaction study: carisoprodol added to a steady-state regimen of phenytoin; settings: human, in vivo; for half-life / Tmax: least sq. mean
Procedure: A single-arm, two-way drug interaction study was conducted in which carisoprodol (350 mg SOMA®) was added to a steady state regimen of phenyloin (PROMPT® Phenyloin Sodium 100 mg Capsules). The effects of coadministration of carisoprodol at steady state conditions on the Cmax and AUC of phenyloin are summarized in Table 5. Twenty-four healthy adults participated in this comparison study and twenty-one of the subjects completed the study.
On study Days 1 through 14, a single 300 mg (1×300 mg capsule) dose of phenyloin sodium was administered to all study subjects following an overnight fast of at least 10 hours.
On study Days 15 through 28, a single 300 mg (1×300 mg capsule) dose of phenyloin sodium and a single 350 mg (1×350 mg tablet) dose of carisoprodol were co-administered to all study subjects following an overnight fast of at least 10 hours. A single dose of carisoprodol was re-administered to all study subjects 3 more times a day (every 6 hours) for Days 15 through 28.
Phenyloin: On study Days 14 and 28, 18 blood samples were collected (6 mL each) from each subject by direct venipuncture using pre-labeled Vacutainers® containing K2 EDTA as an anticoagulant. Blood samples were collected within one hour prior to dosing and after dose administration at study hours 0.5, 1, 1.5, 2, 2.5, 3, 3.5, 4, 4.5, 5, 6, 7, 8, 10, 12, 18, and 24.

[4] = tested on: plasma proteins in the bloodstream such as albumin; settings: cited from earlier work
[5] = Single-dose two-way crossover study of phenytoin pharmacokinetics, alone or co-administered with carisoprodol; settings: human, in vivo; for half-life / Tmax: least sq. mean
Procedure: The study was designed as a randomized, single-dose two-way crossover to compare the pharmacokinetic parameters of carisoprodol (350 mg SOMA® (carisoprodol) Tablets by MedPointe Pharmaceuticals, MedPointe Healthcare Inc.) and phenyloin (PROMPT® Phenyloin Sodium 100 mg Capsules by IVAX Pharmaceuticals, Inc.). Twelve healthy adults participated in this comparison study and all of the subjects completed the study.
Subjects received two separate drug administration treatments in assigned periods, one treatment per period, according to the randomization schedule. Treatment (A) was 3 PROMPT® Phenyloin Sodium 100 mg capsules with 240 mL of room temperature water after an overnight fast. Treatment (B) was 3 PROMPT® Phenyloin Sodium 100 mg capsules and 2 tablets of SOMA® (carisoprodol 350 mg tablets) after an overnight fast.
Dosing days were separated by a washout period of at least fourteen days. Blood samples were drawn prior to dosing (pre-dose) and at 0.5, 1, 1.5, 2, 2.5, 3, 3.5, 4, 4.5, 5, 6, 7, 8, 10, 12, 18, 24, and 48 hours post-dose. The samples were then analyzed for total phenyloin. At study hours 2, 4, 6, 12 and 24 an additional blood sample was collected for the determination of “free” phenyloin.
The area under the plasma concentration versus time curve [AUCt] may be calculated using the linear trapezoidal rule from the zero time point to the last measured concentration.
The area under the plasma concentration versus time curve from zero to infinity [AUC0-INF] may be calculated by adding Ct/Kelm to AUC where Ct is the last measured concentration and Kelm is the elimination rate constant.
The maximum observed plasma concentration [Cmax] may be obtained by inspection.
The time to maximum plasma concentration [Tmax] may be obtained by inspection. If the same maximum plasma concentration occurs at more than one time point, the first may be chosen as Tmax.
The terminal elimination rate constant [Kelm] may be obtained from the slope of the line, fitted by linear least squares regression, through the terminal points of the ln(base e) of the concentration versus time plot for these points.
The half-life [T1/2] may be calculated by the equation T1/2=0.693/Kelm.

Q: Which “solubility in alcohol, chloroform, and acetone (descriptive)” value ([1]; alcohol, chloroform, acetone) does the source give for CCCC(C)(COC(N)=O)COC(=O)NC(C)C (centres unmarked) [Carisoprodol, N-isopropyl-2-methyl-2-propyl-1,3-propanediol dicarbamate] here?
A: freely soluble

Q: And the “solubility in water (descriptive)” value ([1]; water)?
A: very sparingly soluble

Q: Which “typical clinically effective serum level of unbound or free phenytoin (therapeutic range)” value ([2]; free phenytoin) does the source give for O=C1NC(=O)C(c2ccccc2)(c2ccccc2)N1 [Phenytoin, 5,5-diphenylhydantoin] here?
A: 1 to 2 µg/mL

Q: What about the “typical clinically effective serum level of total phenytoin (therapeutic range)” value ([2]; total phenytoin) of the same compound?
A: 10 to 20 µg/mL

Q: What about the “AUC0-INF, free steady-state phenytoin, geometric mean” value [3] of the same compound?
A: 32701.49 ng·h/mL

Q: And the “AUC0-t, free steady-state phenytoin, geometric mean” value [3]?
A: 14733.48 ng·h/mL

Q: What about the “Cmax, total steady-state phenytoin, geometric mean” value [3] of the same compound?
A: 13604.17 ng/mL

Q: And the “kelm, free steady-state phenytoin, least sq. mean” value [3]?
A: 0.0312

Q: What about the “kelm, total steady-state phenytoin, least sq. mean” value [3] of the same compound?
A: 0.0233

Q: And the “Cmax, free steady-state phenytoin, geometric mean” value ([3]; 350 mg)?
A: 929.76 ng/mL

Q: What about the half-life ([3]; T1/2, free steady-state phenytoin) of the same compound?
A: 35.4 h

Q: And the half-life ([3]; T1/2, total steady-state phenytoin)?
A: 39.4 h

Q: And the Tmax ([3]; free steady-state phenytoin)?
A: 5.04 h

Q: What about the Tmax ([3]; total steady-state phenytoin) of the same compound?
A: 3.55 h

Q: What about the “bound to plasma proteins” value [4] of the same compound?
A: about 90%

Q: And the “AUC0-INF, free phenytoin, geometric mean” value [5]?
A: 12927.88 ng·h/mL

Q: And the “AUC0-t, free phenytoin, geometric mean” value [5]?
A: 5150.25 ng·h/mL

Q: What about the AUC(0-inf) [5] of the same compound?
A: 134000 ng·h/mL

Q: And the AUC(0-t) [5]?
A: 97300 ng·h/mL

Q: What about the “Cmax, total phenytoin, geometric mean” value [5] of the same compound?
A: 3222.2 ng/mL

Q: What about the “Kelm, total phenytoin, least sq. mean” value [5] of the same compound?
A: 0.03395

Q: What about the “kelm, free phenytoin, least sq. mean” value [5] of the same compound?
A: 0.0279

Q: And the half-life ([5]; T1/2, free phenytoin)?
A: 35.8 h

Q: And the half-life ([5]; T1/2, total phenytoin)?
A: 23.9 h

Q: What about the Tmax ([5]; free phenytoin) of the same compound?
A: 9.17 h

Q: And the Tmax ([5]; total phenytoin)?
A: 7.44 h
